Experimental findings from US5317026A, “Acetamide derivative and application thereof” (Snow Brand Milk Products Co., Ltd., priority 1992, dated 1994) are described below.

The term ED50 denotes the dose that gives a 50% effect, or the effect in half of the subjects.

Test [1] deals with hydrochloric acid-ethanol induced ulcer. In words: Hydrochloric acid-ethanol induced ulcer. The class given is in vivo, Wister male rats. To be noted: for Suppression / Ulcer index: 60% ethanol containing 150 mM HCl, 1 hour; for Ulcer index: control 41.0 ± 10.9; for ED50: po, rat, per os, read-out: ED50 values in rat ulcer models, hydrochloric acid-ethanol induced ulcer; for suppression of ulcers induced by hydrochloric acid-ethanol (in words): rats. The procedure: Experiments were carried out to investigate the pharmacological activity of Compound RT using ulcer models in Wister male rats. Comparative tests were performed using commercial antiulcer drugs; Cetraxate (trade mark) and Roxatidine (trade mark), each having the following chemical structure. [drawing 11] [(Ulcer index for the control)-(Ulcer index for the tested animal)]/(Ulcer index for the control)×100 Groups of Wister male rats weighing 200-230 g, each group consisting of four rats, were fasted for 24 hours and subjected to the experiment. Cetraxate and Roxatidine, each suspended in 0.5% CMC, were administered to the rats using a per os probe, in an amount of 0.4 ml/100 g. […] After 1 hour, rats were sacrificed to cut out their stomach. 10 ml of a 2% formalin solution was charged into each stomach and the stomach was fixed in the solution for 10 minutes. After fixing, the stomach was opened along the greater curvature, and its mucosal surface was roughly washed with water. […] The total of such length (mm) in each animal was taken as an index for the ulcer production. The ulcer suppression rate (%) was determined in the same manner as above. (3) In order to more clearly identify the activity of Compound RT, both Roxatidine and Cetraxate hydrochloride were administered altogether.

The subject of test [2] is water immersion restrained stress induced ulcer. In words: Water immersion restrained stress induced model. The class given is in vivo, Wister male rats. To be noted: for Suppression / Ulcer index: water immersion stress 7 hours; for Ulcer index: control 10.3 ± 4.5; for ED50: po, rat, per os, read-out: ED50 values in rat ulcer models, water immersion restrained stress induced model; for suppression of ulcers induced by the water dipping stress (in words): rats. The procedure: Experiments were carried out to investigate the pharmacological activity of Compound RT using ulcer models in Wister male rats. […] Cetraxate and Roxatidine, each suspended in 0.5% carboxymethyl cellulose (CMC), were administered to the rats using a per os probe, in an amount of 0.4 ml/100 g. 10 to 20 minutes after the administration, the animals were placed in an stress cage (manufactured by Natsume Manufacturing Co.) and dipped into water in a thermostat water bath at 21° C. to a depth of their processus xiphoideus to give a stress. After 7 hours, rats were taken out from the cage and sacrificed to cut out their stomach. 10 ml of a 2% formalin solution was charged into each stomach and the stomach was fixed in the solution for 10 minutes. After fixing, the stomach was opened along the greater curvature, and its mucosal surface was roughly washed with water. […] The total of such length (mm) in each animal was taken as an index for the ulcer production. The ulcer suppression rate (%) was determined based on the index applying the following formula. [(Ulcer index for the control)-(Ulcer index for the tested animal)]/(Ulcer index for the control)×100 (3) In order to more clearly identify the activity of Compound RT, both Roxatidine and Cetraxate hydrochloride were administered altogether.

[3] abbreviates: hydrochloric acid-ethanol model, than Cetraxate and Roxatidine.
Where [4] appears, read: water immersion model, than Cetraxate and Roxatidine.

As for `NC[C@H]1CC[C@H](C(=O)Oc2ccc(CCC(=O)O)cc2)CC1` [Cetraxate, reference compound], the Suppression in test [1] (40 mg/kg per os) is on record as 12.5%; in test [2] (25 mg/kg per os), 41.7%. Also, the results for the Ulcer index in test [1] (40 mg/kg per os) and in test [2] (25 mg/kg per os) were 35.9 ± 14.7 mm and 6.0 ± 3.3 mm, respectively. The ED50 in test [1] amounted to 60 mg/kg; in test [2] it was 200 mg/kg.

Turning to `NC[C@H]1CC[C@H](C(=O)OCC(=O)NCCCOc2cccc(CN3CCCCC3)c2)CC1` [Compound RT, 2-(trans-p-aminomethylcyclohexanecarboxy)-N-{3-[3-(1-piperidinomethyl)phenoxy]propyl}acetamide], in test [1] (58 mg/kg per os), the Suppression came out at 87.6% and the Ulcer index was 5.1 ± 5.5 mm. Moreover, in test [1] (setting [3]), the “rate of suppression compared with Cetraxate and Roxatidine (in words)” value is “higher rate of suppression”; the “ulcer index compared with Cetraxate and Roxatidine (in words)” value is “lower ulcer index”. For the same molecule, the “suppression of ulcers induced by hydrochloric acid-ethanol (in words)” value in test [1] is on record as “effectively suppress the ulcers”. Also, the “activity against the hydrochloric acid-ethanol induced ulcer compared with combined Roxatidine and Cetraxate hydrochloride (in words)” value in test [1] (versus Roxatidine and Cetraxate hydrochloride administered altogether) was “almost the same as the case where both Roxatidine and Cetraxate hydrochloride were administered altogether”. In test [2] (36 mg/kg per os), this molecule displayed a Suppression of 93.2% and a Ulcer index of 0.7 ± 0.5 mm. Further, in test [2], the “suppression of ulcers induced by the water dipping stress (in words)” value was “effectively suppress the ulcers”. For the same molecule, the “effect on the suppression of the acute gastroduodenal ulcer compared with combined use of the two comparative drugs (in words)” value in test [2] (versus combined use of the two comparative drugs) is “remarkably greater effect”. In test [2] (setting [4]), the “rate of suppression compared with Cetraxate and Roxatidine (in words)” value was “higher rate of suppression”; the “ulcer index compared with Cetraxate and Roxatidine (in words)” value is given as “lower ulcer index”.

For the molecule `O=C(COC(=O)[C@H]1CC[C@H](CNC(=O)OCc2ccccc2)CC1)NCCCOc1cccc(CN2CCCCC2)c1` [Compound RTP, 2-(N-carbobenzoxy-trans-p-aminomethylhexanecarboxy)-N-{3-[3-(1-piperidinomethyl)-phenoxy]propyl}acetamide], the “suppression of ulcers induced by hydrochloric acid-ethanol (in words)” value in test [1] is “effectively suppress the ulcers”. In test [2], the “suppression of ulcers induced by the water dipping stress (in words)” value was “effectively suppress the ulcers”.

For `O=C(CO)NCCCOc1cccc(CN2CCCCC2)c1` [Roxatidine, N-[3-(3-piperidinomethylphenoxy)propyl]hydroxyacetamide, reference compound], the Suppression in test [1] (40 mg/kg per os) came out at 64.2%; in test [2] (25 mg/kg per os) it was 75.7%. In addition, the Ulcer index was 14.7 ± 9.9 mm in test [1] (40 mg/kg per os) and 2.5 ± 1.6 mm in test [2] (25 mg/kg per os). The 50% effective dose (ED50) in test [1] was 40 mg/kg; in test [2], 25 mg/kg.
